Patent US4963655A, “Boron analogs of amino acid/peptide protease inhibitors” (Mayo Foundation for Medical Education and Research, priority 1988, dated 1990)

Columns and labels:
[1] = tested on: Human melanoma cells (A375); assay: Growth Inhibition Assay; assay type: cell-based; conditions: for Growth Inhibition (%) 24 hr: counted after 24 hr growth; for Growth Inhibition (%) 48 hr: counted after 48 hr growth; for Growth Inhibition (%) 96 hr: counted after 96 hr growth; for % Inhib (growth): 96 h exposure, fresh inhibitor every 24 h; for growth inhibitory activity (in words): other serine protease inhibitors, Table 2
Protocol: Human melanoma cells (A375) were seeded at 2 ×10^4 cells per tissue culture dish (60×15 mm, Falcon) in Delbecco's Minimal Essential Media (DMEM) containing 10% fetal calf serum and including 1% antibiotics. Cells were allowed to attach for 48 hours prior to exposure to drugs. Cbz-ala-1-borovaline and Cbz-ala-1-borophenylalanine were dissolved in dimethyl sulfoxide (DMSO). The final DMSO concentration in media was 0.5%. Fresh media was exchanged for the media including the drug at appropriate exposure times. Cells were counted after 24, 48 or 96 hours of growth using a Coulter counter. Growth inhibition is expressed as the percent reduction of drug treated cells with respect to untreated control cells.

[2] = tested on: Human melanoma cells (A375); assay: Colony Formation Assay (CFA); assay type: cell-based
Protocol: Human melanoma cells (A375) were seeded at 500 cells per tissue culture dish and allowed to recover for 48 hours. The drug and media mixture was prepared as described above. Following drug exposure, fresh media were substituted for the drug and media mixture. After 7 days, colonies were stained with 0.25% Coomassie Blue and enumerated. Data are expressed as the percent of colonies present in treated plates with respect to control plates (percent survival).

A375 cells = assay: Macromolecular synthesis: protein synthesis ([3H]-leucine incorporation); assay type: cell-based, human; conditions: 0.075 ug/ml
Protocol: Protein synthesis was determined by the incorporation of [^3 H]-leucine into protein in viable cells.
Human melanoma (A375) cells were seeded at 1 ×10^5 cells per tissue culture dish 48 hours prior to the addition of the drug (for example, Cbz-ala-1borovaline or Cbz-ala-1-borophenylalanine). The drug and media mixture was prepared as described above. During the last 30 minutes of drug exposure radioactive labeled precursors were added to the media and drug mixture. Specifically, either ^3 H-thymidine (0.2 uCi/ml, to measure DNA synthesis), ^3 H-uridine (0.2 uCi/ml, to measure RNA synthesis, or ^3 H-leucine (1 uCi/ml, to measure protein synthesis) were added. Following 30 minutes at 37° C., the cells were harvested, resuspended in physiological buffered saline (PBS) and the cells counted. An aliquot of the cell suspension was then lysed (10 mM Tris, 1 mM EDTA, 0.1% SDS) and macromolecules were precipitated with ice-cold trichloroacetic acid (TCA) (20%). Following three washes with TCA, radioactivity in the resulting pellet was counted on a Beckman LS2000 Scintillation Counter. Data is expressed as the percentage of counts incorporated into 1×10^6 treated cells as compared to 1×10^6 untreated cells (percent incorporation).

[3] = tested on: human lung carcinoma (A549) cells; assay: Growth and colony formation of A549 cells in culture; assay type: cell-based
Source text: Qualitatively similar results were obtained against human lung carcinoma (A549) cells in culture (data not shown). […] The plateau, however, was not observed in association with the analog after the 1-hour (FIG. 3A) or continuous (FIG. 3C) exposure times. A similar plateau was never observed with Cbz-ala-1-borophenylalanine treatment. A plateau was also seen with A549 cells. A growth inhibition assay (Table 1) yielded qualitatively similar results as the colony formation assay.

[4] = tested on: Lewis lung murine tumor cells; conditions: Lewis lung murine tumor cells in culture; Goz et al.; cited from earlier work
[5] = tested on: L1210 murine leukemia cells; assay: Growth inhibition of L1210 cells in culture; assay type: cell-based; conditions: 72-hour exposure, 0.03 uM
Protocol: Following a 72-hour exposure to 0.03 uM ala-1-borovaline, approximately 50% growth inhibition was observed. The two compounds are also cytotoxic to human tumor cell lines. While not yet fully understood, the mechanism of cytotoxicity is not via macromolecular synthesis inhibition in the human tumor cell lines.

CC(NC(=O)OCc1ccccc1)C(=O)NC(Cc1ccccc1)B(O)O (centres unmarked) [Cbz-ala-1-Borophenylalanine, Cbz-ala-1-borophenylalanine]
growth inhibition ([1]; 0.075 ug/ml, 24-hour exposure): 70% | Growth Inhibition (%) 24 hr ([1]; exposure 1 h, 51.6 uM): 20% | Growth Inhibition (%) 48 hr ([1]; exposure 1 h, 51.6 uM): 41% | Growth Inhibition (%) 96 hr ([1]; exposure 1 h, 51.6 uM): 52% | Growth Inhibition (%) 24 hr ([1]; exposure 1 h, 129 uM): 42% | Growth Inhibition (%) 48 hr ([1]; exposure 1 h, 129 uM): 65% | Growth Inhibition (%) 96 hr ([1]; exposure 1 h, 129 uM): 69% | Growth Inhibition (%) 24 hr ([1]; exposure 24 h, .026 uM): 5% | Growth Inhibition (%) 48 hr ([1]; exposure 24 h, .026 uM): 3% | Growth Inhibition (%) 96 hr ([1]; exposure 24 h, .026 uM): 15% | Growth Inhibition (%) 24 hr ([1]; exposure 24 h, .129 uM): 41% | Growth Inhibition (%) 48 hr ([1]; exposure 24 h, .129 uM): 63% | Growth Inhibition (%) 96 hr ([1]; exposure 24 h, .129 uM): 68% | Growth Inhibition (%) 24 hr ([1]; exposure 24 h, .645 uM): 75% | Growth Inhibition (%) 48 hr ([1]; exposure 24 h, .645 uM): 72% | Growth Inhibition (%) 96 hr ([1]; exposure 24 h, .645 uM): 98% | Growth Inhibition (%) 24 hr ([1]; exposure 96 h, .1239 uM): 38% | Growth Inhibition (%) 48 hr ([1]; exposure 96 h, .1239 uM): 68% | Growth Inhibition (%) 96 hr ([1]; exposure 96 h, .1239 uM): 75% | Growth Inhibition (%) 24 hr ([1]; exposure 96 h, .258 uM): 58% | Growth Inhibition (%) 48 hr ([1]; exposure 96 h, .258 uM): 91% | Growth Inhibition (%) 96 hr ([1]; exposure 96 h, .258 uM): 95% | Colony Formation Inhibition (%) ([2]; exposure 1 h, 51.6 uM): 55% | Colony Formation Inhibition (%) ([2]; exposure 24 h, .026 uM): 10% | Colony Formation Inhibition (%) ([2]; exposure 24 h, .129 uM): 35% | Colony Formation Inhibition (%) ([2]; exposure 24 h, .645 uM): 97% | inhibition of protein synthesis (A375 cells): did not show an acute inhibition of protein synthesis | inhibition of growth and colony formation (in words) [3]: effective inhibitors | cytotoxicity (in words) [4]: modest activity

CC(NC(=O)OCc1ccccc1)C(=O)NC(B(O)O)C(C)C (centres unmarked) [Cbz-ala-1-Borovaline, Cbz-ala-1-borovaline]
Growth Inhibition (%) 24 hr ([1]; exposure 1 h, 7.36 uM): 14% | Growth Inhibition (%) 48 hr ([1]; exposure 1 h, 7.36 uM): 33% | Growth Inhibition (%) 96 hr ([1]; exposure 1 h, 7.36 uM): 46% | Growth Inhibition (%) 24 hr ([1]; exposure 1 h, 29.43 uM): 23% | Growth Inhibition (%) 48 hr ([1]; exposure 1 h, 29.43 uM): 48% | Growth Inhibition (%) 96 hr ([1]; exposure 1 h, 29.43 uM): 73% | Growth Inhibition (%) 24 hr ([1]; exposure 24 h, 1.47 uM): 61% | Growth Inhibition (%) 48 hr ([1]; exposure 24 h, 1.47 uM): 88% | Growth Inhibition (%) 96 hr ([1]; exposure 24 h, 1.47 uM): 93% | Growth Inhibition (%) 24 hr ([1]; exposure 24 h, .003 uM): 5% | Growth Inhibition (%) 48 hr ([1]; exposure 24 h, .003 uM): 5% | Growth Inhibition (%) 96 hr ([1]; exposure 24 h, .003 uM): 14% | Growth Inhibition (%) 24 hr ([1]; exposure 24 h, .029 uM): 17% | Growth Inhibition (%) 48 hr ([1]; exposure 24 h, .029 uM): 50% | Growth Inhibition (%) 96 hr ([1]; exposure 24 h, .029 uM): 68% | Growth Inhibition (%) 24 hr ([1]; exposure 96 h, .029 uM): 21% | Growth Inhibition (%) 48 hr ([1]; exposure 96 h, .029 uM): 51% | Growth Inhibition (%) 96 hr ([1]; exposure 96 h, .029 uM): 68% | Growth Inhibition (%) 24 hr ([1]; exposure 96 h, .736 uM): 53% | Growth Inhibition (%) 48 hr ([1]; exposure 96 h, .736 uM): 78% | Growth Inhibition (%) 96 hr ([1]; exposure 96 h, .736 uM): 89% | inhibition of colony formation, comparison of potency (in words) ([2]; FIG. 3): more potent inhibitor of colony formation than was Cbz-ala-1-borophenylalanine | Colony Formation Inhibition (%) ([2]; exposure 1 h, 7.36 uM): 41% | Colony Formation Inhibition (%) ([2]; exposure 1 h, 29.43 uM): 87% | Colony Formation Inhibition (%) ([2]; exposure 24 h, 1.47 uM): 87% | Colony Formation Inhibition (%) ([2]; exposure 24 h, .003 uM): 5% | Colony Formation Inhibition (%) ([2]; exposure 24 h, .029 uM): 43% | growth inhibition [5]: approximately 50% | inhibition of growth and colony formation (in words) [3]: effective inhibitors

Aprotinin [reference compound]
% Inhib (growth) ([1]; 1.54 uM): 0% | % Inhib (growth) ([1]; 15.4 uM): 0% | % Inhib (growth) ([1]; .015 uM): 0% | % Inhib (growth) ([1]; .154 uM): 0% | growth inhibitory activity (in words) [1]: Negligible growth inhibition

N-tosylphenylalanine chloromethyl ketone [TPCK, reference compound]
% Inhib (growth) ([1]; 2.84 uM): 42% | % Inhib (growth) ([1]; 28.4 uM): 100% | % Inhib (growth) ([1]; 142 uM): 100% | % Inhib (growth) ([1]; 284 uM): 100% | % Inhib (growth) ([1]; .028 uM): 5% | % Inhib (growth) ([1]; .284 uM): 9% | growth inhibitory activity (in words) [1]: inhibited growth at very high concentrations

B1: Ovomucoid: serine protease inhibitor (protein, UniProt P01005 25-210, looked up)
Ovomucoid: AEVDCSRFPNATDKEGKDVLVCNKDLRPICGTDGVTYTNDCLLCAYSIEFGTNISKEHDGECKETVPMNCSSYANTTSEDGKVMVLCNRAFNPVCGTDGVTYDNECLLCAHKVEQGASVDKRHDGGCRKELAAVSVDCSEYPKPDCTAEDRPLCGSDNKTYGNKCNFCNAVVESNGTLTLSHFGKC
% Inhib (growth) ([1]; 3.57 uM): 0% | % Inhib (growth) ([1]; 17.9 uM): 0% | % Inhib (growth) ([1]; 89.3 uM): 5% | % Inhib (growth) ([1]; .004 uM): 0% | % Inhib (growth) ([1]; .036 uM): 0% | % Inhib (growth) ([1]; .357 uM): 1% | growth inhibitory activity (in words) [1]: Negligible growth inhibition
